Experiments:
[1] = Stability in mouse plasma assessed as parent compound remaining after 4 hrs by radio-HPLC analysis; format: ADME, cell-free; conditions: read-out: Stability
[2] = Stability in iv dosed KM mouse assessed as radioactivity of parent compound remaining in blood after 1 hrs by radio-HPLC analysis; format: ADME, organism-based; conditions: in vivo
[3] = Lipophilicity, logD of compound; format: physicochemical; conditions: octanol/water
[4] = Biodistribution in blood of iv dosed KM mouse assessed as radioactivity after 2 mins by imaging analysis; format: ADME, organism-based; conditions: in vivo
[5] = Biodistribution in brain of iv dosed KM mouse assessed as radioactivity after 2 mins by imaging analysis; format: ADME, organism-based; conditions: in vivo
[6] = Biodistribution in heart of iv dosed KM mouse assessed as radioactivity after 2 mins by imaging analysis; format: ADME, organism-based; conditions: in vivo
[7] = Biodistribution in liver of iv dosed KM mouse assessed as radioactivity after 2 mins by imaging analysis; format: ADME, organism-based; conditions: in vivo
[8] = Biodistribution in spleen of iv dosed KM mouse assessed as radioactivity after 2 mins by imaging analysis; format: ADME, organism-based; conditions: in vivo
[9] = Biodistribution in lung of iv dosed KM mouse assessed as radioactivity after 2 mins by imaging analysis; format: ADME, organism-based; conditions: in vivo
[10] = Biodistribution in kidney of iv dosed KM mouse assessed as radioactivity after 2 mins by imaging analysis; format: ADME, organism-based; conditions: in vivo
[11] = Biodistribution in pancreas of iv dosed KM mouse assessed as radioactivity after 2 mins by imaging analysis; format: ADME, organism-based; conditions: in vivo
[12] = Biodistribution in muscle of iv dosed KM mouse assessed as radioactivity after 2 mins by imaging analysis; format: ADME, organism-based, Muscle tissue; conditions: in vivo
[13] = Biodistribution in bone of iv dosed KM mouse assessed as radioactivity after 2 mins by imaging analysis; format: ADME, organism-based, Bone element; conditions: in vivo
[14] = Biodistribution in stomach of iv dosed KM mouse assessed as radioactivity after 2 mins by imaging analysis; format: ADME, organism-based; conditions: in vivo
[15] = Biodistribution in small intestine of iv dosed KM mouse assessed as radioactivity after 2 mins by imaging analysis; format: ADME, organism-based; conditions: in vivo
[16] = Biodistribution in blood of iv dosed KM mouse assessed as radioactivity after 10 mins by imaging analysis; format: ADME, organism-based; conditions: in vivo
[17] = Biodistribution in brain of iv dosed KM mouse assessed as radioactivity after 10 mins by imaging analysis; format: ADME, organism-based; conditions: in vivo
[18] = Biodistribution in heart of iv dosed KM mouse assessed as radioactivity after 10 mins by imaging analysis; format: ADME, organism-based; conditions: in vivo
[19] = Biodistribution in liver of iv dosed KM mouse assessed as radioactivity after 10 mins by imaging analysis; format: ADME, organism-based; conditions: in vivo
[20] = Biodistribution in spleen of iv dosed KM mouse assessed as radioactivity after 10 mins by imaging analysis; format: ADME, organism-based; conditions: in vivo
[21] = Biodistribution in lung of iv dosed KM mouse assessed as radioactivity after 10 mins by imaging analysis; format: ADME, organism-based; conditions: in vivo
[22] = Biodistribution in kidney of iv dosed KM mouse assessed as radioactivity after 10 mins by imaging analysis; format: ADME, organism-based; conditions: in vivo
[23] = Biodistribution in pancreas of iv dosed KM mouse assessed as radioactivity after 10 mins by imaging analysis; format: ADME, organism-based; conditions: in vivo
[24] = Biodistribution in muscle of iv dosed KM mouse assessed as radioactivity after 10 mins by imaging analysis; format: ADME, organism-based, Muscle tissue; conditions: in vivo
[25] = Biodistribution in bone of iv dosed KM mouse assessed as radioactivity after 10 mins by imaging analysis; format: ADME, organism-based, Bone element; conditions: in vivo
[26] = Biodistribution in stomach of iv dosed KM mouse assessed as radioactivity after 10 mins by imaging analysis; format: ADME, organism-based; conditions: in vivo
[27] = Biodistribution in small intestine of iv dosed KM mouse assessed as radioactivity after 10 mins by imaging analysis; format: ADME, organism-based; conditions: in vivo
[28] = Biodistribution in blood of iv dosed KM mouse assessed as radioactivity after 30 mins by imaging analysis; format: ADME, organism-based; conditions: in vivo, 0.5 h
[29] = Biodistribution in brain of iv dosed KM mouse assessed as radioactivity after 30 mins by imaging analysis; format: ADME, organism-based; conditions: in vivo, 0.5 h
[30] = Biodistribution in heart of iv dosed KM mouse assessed as radioactivity after 30 mins by imaging analysis; format: ADME, organism-based; conditions: in vivo, 0.5 h
[31] = Biodistribution in liver of iv dosed KM mouse assessed as radioactivity after 30 mins by imaging analysis; format: ADME, organism-based; conditions: in vivo, 0.5 h
[32] = Biodistribution in spleen of iv dosed KM mouse assessed as radioactivity after 30 mins by imaging analysis; format: ADME, organism-based; conditions: in vivo, 0.5 h
[33] = Biodistribution in lung of iv dosed KM mouse assessed as radioactivity after 30 mins by imaging analysis; format: ADME, organism-based; conditions: in vivo, 0.5 h
[34] = Biodistribution in kidney of iv dosed KM mouse assessed as radioactivity after 30 mins by imaging analysis; format: ADME, organism-based; conditions: in vivo, 0.5 h
[35] = Biodistribution in pancreas of iv dosed KM mouse assessed as radioactivity after 30 mins by imaging analysis; format: ADME, organism-based; conditions: in vivo, 0.5 h
[36] = Biodistribution in muscle of iv dosed KM mouse assessed as radioactivity after 30 mins by imaging analysis; format: ADME, organism-based, Muscle tissue; conditions: in vivo, 0.5 h
[37] = Biodistribution in bone of iv dosed KM mouse assessed as radioactivity after 30 mins by imaging analysis; format: ADME, organism-based, Bone element; conditions: in vivo, 0.5 h
[38] = Biodistribution in stomach of iv dosed KM mouse assessed as radioactivity after 30 mins by imaging analysis; format: ADME, organism-based; conditions: in vivo, 0.5 h
[39] = Biodistribution in small intestine of iv dosed KM mouse assessed as radioactivity after 30 mins by imaging analysis; format: ADME, organism-based; conditions: in vivo, 0.5 h
[40] = Biodistribution in blood of iv dosed KM mouse assessed as radioactivity after 60 mins by imaging analysis; format: ADME, organism-based; conditions: in vivo, 1 h
[41] = Biodistribution in brain of iv dosed KM mouse assessed as radioactivity after 60 mins by imaging analysis; format: ADME, organism-based; conditions: in vivo, 1 h
[42] = Biodistribution in heart of iv dosed KM mouse assessed as radioactivity after 60 mins by imaging analysis; format: ADME, organism-based; conditions: in vivo, 1 h
[43] = Biodistribution in liver of iv dosed KM mouse assessed as radioactivity after 60 mins by imaging analysis; format: ADME, organism-based; conditions: in vivo, 1 h
[44] = Biodistribution in spleen of iv dosed KM mouse assessed as radioactivity after 60 mins by imaging analysis; format: ADME, organism-based; conditions: in vivo, 1 h
[45] = Biodistribution in lung of iv dosed KM mouse assessed as radioactivity after 60 mins by imaging analysis; format: ADME, organism-based; conditions: in vivo, 1 h
[46] = Biodistribution in kidney of iv dosed KM mouse assessed as radioactivity after 60 mins by imaging analysis; format: ADME, organism-based; conditions: in vivo, 1 h
[47] = Biodistribution in pancreas of iv dosed KM mouse assessed as radioactivity after 60 mins by imaging analysis; format: ADME, organism-based; conditions: in vivo, 1 h
[48] = Biodistribution in muscle of iv dosed KM mouse assessed as radioactivity after 60 mins by imaging analysis; format: ADME, organism-based, Muscle tissue; conditions: in vivo, 1 h
[49] = Biodistribution in bone of iv dosed KM mouse assessed as radioactivity after 60 mins by imaging analysis; format: ADME, organism-based, Bone element; conditions: in vivo, 1 h
[50] = Biodistribution in stomach of iv dosed KM mouse assessed as radioactivity after 60 mins by imaging analysis; format: ADME, organism-based; conditions: in vivo, 1 h
[51] = Biodistribution in small intestine of iv dosed KM mouse assessed as radioactivity after 60 mins by imaging analysis; format: ADME, organism-based; conditions: in vivo, 1 h
[52] = target: Glycogen synthase kinase-3 beta (Homo sapiens, UniProt P49841); experiment: Inhibition of GSK-3beta (unknown origin)
Sequence of Glycogen synthase kinase-3 beta (P49841 whole entry): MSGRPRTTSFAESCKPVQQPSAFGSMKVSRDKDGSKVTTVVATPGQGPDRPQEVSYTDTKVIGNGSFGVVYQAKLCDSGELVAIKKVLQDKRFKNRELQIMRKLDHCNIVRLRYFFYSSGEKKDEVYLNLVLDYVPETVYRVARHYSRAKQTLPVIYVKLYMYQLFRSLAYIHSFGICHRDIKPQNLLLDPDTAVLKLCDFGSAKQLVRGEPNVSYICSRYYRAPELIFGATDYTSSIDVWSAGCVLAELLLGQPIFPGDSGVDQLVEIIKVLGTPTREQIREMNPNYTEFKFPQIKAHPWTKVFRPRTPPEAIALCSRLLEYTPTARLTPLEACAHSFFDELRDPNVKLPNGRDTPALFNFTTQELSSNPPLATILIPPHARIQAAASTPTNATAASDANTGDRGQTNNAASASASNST

CNC(=O)c1sc(-c2ccnc(NC(=O)C3CC3)c2)nc1OCC[18F]
remaining at 4 h [1]: > 95% | Stability [2]: 90% | logD [3]: 2.24 | Drug uptake [4]: 5.64 % ID/g | Drug uptake [5]: 1.68 % ID/g | Drug uptake [6]: 8.03 % ID/g | Drug uptake [7]: 22.28 % ID/g | Drug uptake [8]: 5.28 % ID/g | Drug uptake [9]: 7.28 % ID/g | Drug uptake [10]: 16.09 % ID/g | Drug uptake [11]: 7.32 % ID/g | Drug uptake [12]: 3.45 % ID/g | Drug uptake [13]: 2.83 % ID/g | Drug uptake [14]: 2.53 % ID/g | Drug uptake [15]: 9.74 % ID/g | Drug uptake [16]: 3.5 % ID/g | Drug uptake [17]: 0.77 % ID/g | Drug uptake [18]: 5.44 % ID/g | Drug uptake [19]: 32.93 % ID/g | Drug uptake [20]: 4.48 % ID/g | Drug uptake [21]: 4.5 % ID/g | Drug uptake [22]: 14.4 % ID/g | Drug uptake [23]: 5.07 % ID/g | Drug uptake [24]: 2.18 % ID/g | Drug uptake [25]: 2.42 % ID/g | Drug uptake [26]: 3.29 % ID/g | Drug uptake [27]: 11.16 % ID/g | Drug uptake [28]: 2.18 % ID/g | Drug uptake [29]: 0.42 % ID/g | Drug uptake [30]: 3.41 % ID/g | Drug uptake [31]: 23.75 % ID/g | Drug uptake [32]: 2.91 % ID/g | Drug uptake [33]: 2.87 % ID/g | Drug uptake [34]: 13.09 % ID/g | Drug uptake [35]: 3.05 % ID/g | Drug uptake [36]: 1.38 % ID/g | Drug uptake [37]: 2.05 % ID/g | Drug uptake [38]: 2.92 % ID/g | Drug uptake [39]: 24.4 % ID/g | Drug uptake [40]: 1.11 % ID/g | Drug uptake [41]: 0.31 % ID/g | Drug uptake [42]: 1.73 % ID/g | Drug uptake [43]: 15.27 % ID/g | Drug uptake [44]: 1.4 % ID/g | Drug uptake [45]: 1.54 % ID/g | Drug uptake [46]: 7.11 % ID/g | Drug uptake [47]: 1.76 % ID/g | Drug uptake [48]: 0.87 % ID/g | Drug uptake [49]: 2.91 % ID/g | Drug uptake [50]: 1.88 % ID/g | Drug uptake [51]: 31.31 % ID/g

O=C(NCCF)c1sc(-c2ccnc(NC(=O)C3CC3)c2)nc1OCC1CC1
IC50 [52]: 18.2 nM

CN(C)C(=O)c1sc(-c2ccnc(NC(=O)C3CC3)c2)nc1OCCF
IC50 [52]: 152 nM

CNC(=O)c1sc(-c2ccnc(NC(=O)C3CC3)c2)nc1OCCOCCF
IC50 [52]: 36.5 nM

CCOC(=O)c1sc(-c2ccnc(NC(=O)C3CC3)c2)nc1OCCOCCOCCF
IC50 [52]: 345 nM

O=C(Nc1cc(-c2nc(OCC3CC3)c(C(=O)N3CC(F)C3)s2)ccn1)C1CC1
IC50 [52]: 42.1 nM

CN(C)C(=O)c1sc(-c2ccnc(NC(=O)C3CC3)c2)nc1OCCOCCOCCF
IC50 [52]: 426 nM

CCOC(=O)c1sc(-c2ccnc(NC(=O)C3CC3)c2)nc1OCCF
IC50 [52]: 68.1 nM

CNC(=O)c1sc(-c2ccnc(NC(=O)C3CC3)c2)nc1OCCF
IC50 [52]: 6 nM

CN(C)C(=O)c1sc(-c2ccnc(NC(=O)C3CC3)c2)nc1OCCOCCF
IC50 [52]: 149 nM

CCOC(=O)c1sc(-c2ccnc(NC(=O)C3CC3)c2)nc1OCCOCCF
IC50 [52]: 422 nM

Reference: ChEMBL document CHEMBL5257073, “Development of [18F]Thiazolylacylaminopyridine-Based Glycogen synthase Kinase-3β ligands for positron emission tomography imaging” (Bioorg Med Chem Lett, 2023)
